Test results: PubChem BioAssay AID248 (DTP/NCI, 2004)
Several values for one entry are separate records, joined by “and”; a condition that tells them apart may be missing. Equal values may be shown once. Inconclusive results and toxic doses are left out. No stated cut-off is given here; in the data, active means T/C of 150% or more; inactive means T/C below 125%.

Tested on: L1210 leukemia ip in BDF1 mice, survival T/C
Assay: NCI In Vivo Anticancer Drug Screen. Data for tumor model L1210 Leukemia (intraperitoneal) in B6D2F1 (BDF1) mice
Settings: endpoint: mean survival time, higher = longer survival
How it was run: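 Read-out is survival time, reported as the treated-group measurement over the vehicle-control measurement.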

[1] = dose: 100.0 mg/kg/injection, schedule: Q01DX009 (ip), vehicle: saline with Tween-80
[2] = dose: 100.0 mg/kg/injection, schedule: Q04DX003 (ip), vehicle: saline with Tween-80
[3] = dose: 200.0 mg/kg/injection, schedule: Q01DX009 (ip), vehicle: saline with Tween-80
[4] = dose: 200.0 mg/kg/injection, schedule: Q04DX003 (ip), vehicle: saline with Tween-80
[5] = dose: 400.0 mg/kg/injection, schedule: Q01DX009 (ip), vehicle: saline with Tween-80
[6] = dose: 400.0 mg/kg/injection, schedule: Q04DX003 (ip), vehicle: saline with Tween-80
[7] = dose: 100.0 mg/kg/injection, schedule: Q01DX001 (ip), vehicle: saline
[8] = dose: 200.0 mg/kg/injection, schedule: Q01DX001 (ip), vehicle: saline
[9] = dose: 400.0 mg/kg/injection, schedule: Q01DX001 (ip), vehicle: saline
[10] = dose: 100.0 mg/kg/injection, schedule: Q04DX002 (ip), vehicle: saline with Tween-80
[11] = dose: 200.0 mg/kg/injection, schedule: Q04DX002 (ip), vehicle: saline with Tween-80
[12] = dose: 400.0 mg/kg/injection, schedule: Q04DX002 (ip), vehicle: saline with Tween-80
[13] = dose: 25.0 mg/kg/injection, schedule: Q01DX009 (ip), vehicle: Klucel (hydroxypropylcellulose) (HPC)
[14] = dose: 50.0 mg/kg/injection, schedule: Q01DX009 (ip), vehicle: Klucel (hydroxypropylcellulose) (HPC)
[15] = dose: 100.0 mg/kg/injection, schedule: Q01DX009 (ip), vehicle: Klucel (hydroxypropylcellulose) (HPC)
[16] = dose: 50.0 mg/kg/injection, schedule: Q01DX009 (ip), vehicle: saline with Tween-80
[17] = dose: 200.0 mg/kg/injection, schedule: Q01DX009 (ip), vehicle: Klucel (hydroxypropylcellulose) (HPC)
[18] = dose: 100.0 mg/kg/injection, schedule: Q01DX009 (ip), vehicle: saline
[19] = dose: 100.0 mg/kg/injection, schedule: Q04DX003 (ip), vehicle: saline

Measured: T/C

Cc1cc(Cl)ccc1NC(=O)c1ccc(Cl)c(Cl)c1
inactive: [1] 88 % of control | [2] 100 % of control | [3] 93 % of control | [4] 96 % of control | [5] 93 % of control | [6] 94 % of control

CCCCCCCC(Cc1ccccc1)C(N)=O (centres undefined)
inactive: [7] 97 % of control | [8] 92 % of control | [9] 92 % of control

O=C(Nc1ccc(Cl)c(Cl)c1)Nc1ccc(Cl)c(Cl)c1
inactive: dose: 100.0 mg/kg/injection, schedule: Q04DX002 (ip), vehicle: Klucel (hydroxypropylcellulose) (HPC) 100 % of control | dose: 200.0 mg/kg/injection, schedule: Q04DX002 (ip), vehicle: Klucel (hydroxypropylcellulose) (HPC) 90 % of control | dose: 400.0 mg/kg/injection, schedule: Q04DX002 (ip), vehicle: Klucel (hydroxypropylcellulose) (HPC) 86 % of control

O=C1OC(/C=C/c2ccccc2)=NC/1=C\c1cc(Br)ccc1O
inactive: [10] 104 % of control | [11] 95 % of control and 97 % of control | [12] 104 % of control and 114 % of control

c1ccc(N2CCN(Cc3ccc4ccccc4c3)CC2)cc1
inactive: dose: 100.0 mg/kg/injection, schedule: Q01DX001 (ip), vehicle: saline with Tween-80 96 % of control | dose: 200.0 mg/kg/injection, schedule: Q01DX001 (ip), vehicle: saline with Tween-80 100 % of control | dose: 400.0 mg/kg/injection, schedule: Q01DX001 (ip), vehicle: saline with Tween-80 91 % of control

O=C(O)C1(NC2CCCCC2)CCCCC1
inactive: dose: 5.0 mg/kg/injection, schedule: Q01DX Z (ip), vehicle: methylcellulose (MC) 104 % of control | dose: 10.0 mg/kg/injection, schedule: Q01DX Z (ip), vehicle: methylcellulose (MC) 114 % of control | dose: 20.0 mg/kg/injection, schedule: Q01DX Z (ip), vehicle: methylcellulose (MC) 99 % of control | dose: 40.0 mg/kg/injection, schedule: Q01DX Z (ip), vehicle: methylcellulose (MC) 100 % of control | dose: 80.0 mg/kg/injection, schedule: Q01DX Z (ip), vehicle: methylcellulose (MC) 99 % of control

CSC1=NCCS1
inactive: [13] 97 % of control | [14] 102 % of control | [15] 105 % of control | dose: 100.0 mg/kg/injection, schedule: Q01DX009 (ip), vehicle: carboxymethylcellulose (CMC) 111 % of control | dose: 200.0 mg/kg/injection, schedule: Q01DX009 (ip), vehicle: carboxymethylcellulose (CMC) 101 % of control

O=C(Cl)COc1c(Cl)cc(Cl)cc1Cl
inactive: [10] 107 % of control | [11] 107 % of control | [12] 103 % of control

O=Cc1nccn1Cc1ccccc1
inactive: dose: 25.0 mg/kg/injection, schedule: Q01DX009 (ip), vehicle: saline with Tween-80 93 % of control | [16] 98 % of control | [1] 100 % of control

CCCCCCCCCCCCSC(=O)Nc1ccc([N+](=O)[O-])cc1Cl
inactive: [17] 107 % of control | dose: 400.0 mg/kg/injection, schedule: Q01DX009 (ip), vehicle: Klucel (hydroxypropylcellulose) (HPC) 102 % of control

COP(=O)(OC)OCc1cnc(SC)nc1N
inactive: dose: 25.0 mg/kg/injection, schedule: Q01DX009 (ip), vehicle: saline 100 % of control | dose: 25.0 mg/kg/injection, schedule: Q04DX003 (ip), vehicle: saline 100 % of control | dose: 50.0 mg/kg/injection, schedule: Q01DX009 (ip), vehicle: saline 102 % of control | dose: 50.0 mg/kg/injection, schedule: Q04DX003 (ip), vehicle: saline 105 % of control | [18] 98 % of control | [19] 101 % of control and 102 % of control

CCCCCCCCOC(=O)c1[nH]cnc1/N=N/N(C)C1CCCCC1
inactive: dose: 100.0 mg/kg/injection, schedule: Q01DX001 (ip), vehicle: other 93 % of control | dose: 200.0 mg/kg/injection, schedule: Q01DX001 (ip), vehicle: other 96 % of control | dose: 400.0 mg/kg/injection, schedule: Q01DX001 (ip), vehicle: other 91 % of control

COC(C)CSP(SCC(C)OC)SCC(C)OC (centres undefined)
inactive: [13] 96 % of control | [14] 99 % of control | [15] 99 % of control

CC(CN1c2ccccc2Sc2ccc(Cl)cc21)N(C)CCCl (centres undefined)
inactive: dose: 75.0 mg/kg/injection, schedule: Q01DX001 (ip), vehicle: carboxymethylcellulose (CMC) 106 % of control and 114 % of control

COc1ccc(CCN=Cc2ccc3c(c2)Cc2ccccc2-3)cc1OC
inactive: [19] 105 % of control | dose: 200.0 mg/kg/injection, schedule: Q04DX003 (ip), vehicle: saline 108 % of control | dose: 400.0 mg/kg/injection, schedule: Q04DX003 (ip), vehicle: saline 90 % of control

O=C(NN=C1CCCC1)c1ccccc1O
inactive: [18] 102 % of control | dose: 200.0 mg/kg/injection, schedule: Q01DX009 (ip), vehicle: saline 102 % of control | dose: 400.0 mg/kg/injection, schedule: Q01DX009 (ip), vehicle: saline 120 % of control

CC(=O)C1(O)Cc2c(O)c3c(c(O)c2C(OC2CC(N)C(O)C(C)O2)C1)C(=O)c1ccccc1C3=O (centres undefined)
inactive: dose: 0.1 mg/kg/injection, schedule: Q01DX009 (ip), vehicle: saline 119 % of control | dose: 0.8 mg/kg/injection, schedule: Q01DX009 (ip), vehicle: saline 92 % of control

O=C(c1ccccc1)C(C(=O)c1ccccc1)C(c1ccccc1)C(C(=O)c1ccccc1)C(c1ccccc1)c1ccccc1 (centres undefined)
inactive: [7] 87 % of control | [8] 89 % of control | [9] 92 % of control and 91 % of control

COC(=O)c1ccccc1-c1c(C)cccc1[N+](=O)[O-]
inactive: [1] 105 % of control | [3] 90 % of control | [5] 100 % of control

Cc1cc(N=Nc2ccc(N(C)C)cc2)ccn1
inactive: dose: 100.0 mg/kg/injection, schedule: Q04DX003 (ip), vehicle: Klucel (hydroxypropylcellulose) (HPC) 101 % of control | dose: 200.0 mg/kg/injection, schedule: Q04DX003 (ip), vehicle: Klucel (hydroxypropylcellulose) (HPC) 102 % of control | dose: 400.0 mg/kg/injection, schedule: Q04DX003 (ip), vehicle: Klucel (hydroxypropylcellulose) (HPC) 91 % of control

Nc1c2ccccc2cc2ccccc12
inactive: [16] 91 % of control | [1] 97 % of control | [2] 96 % of control and 112 % of control | [3] 110 % of control | [4] 91 % of control and 97 % of control | [6] 88 % of control

O=C1CCC2c3ccccc3-c3cccc1c32 (centres undefined)
inactive: dose: 50.0 mg/kg/injection, schedule: Q01DX001 (ip), vehicle: carboxymethylcellulose (CMC) 100 % of control | dose: 100.0 mg/kg/injection, schedule: Q01DX001 (ip), vehicle: carboxymethylcellulose (CMC) 91 % of control | dose: 200.0 mg/kg/injection, schedule: Q01DX001 (ip), vehicle: carboxymethylcellulose (CMC) 96 % of control | dose: 400.0 mg/kg/injection, schedule: Q01DX001 (ip), vehicle: carboxymethylcellulose (CMC) 102 % of control

CC(=N/N(C)c1ccccc1)/C(C)=N/N(C)c1ccccc1
inactive: dose: 5.0 mg/kg/injection, schedule: Q01DX001 (ip), vehicle: other 96 % of control | dose: 10.0 mg/kg/injection, schedule: Q01DX001 (ip), vehicle: other 102 % of control | dose: 20.0 mg/kg/injection, schedule: Q01DX001 (ip), vehicle: other 100 % of control | dose: 40.0 mg/kg/injection, schedule: Q01DX001 (ip), vehicle: other 100 % of control | dose: 80.0 mg/kg/injection, schedule: Q01DX001 (ip), vehicle: other 93 % of control

CSc1ccc(NC(=O)Nc2ccc(Cl)cc2[N+](=O)[O-])cc1
inactive: [15] 97 % of control | [17] 91 % of control

Cc1ccc(/C(C#N)=C/C2CCC(N(C)C)CC2)cc1 (centres undefined)
inactive: [10] 87 % of control | [11] 93 % of control | [12] 87 % of control

COc1ccc(Cc2ccc(O)cc2)cc1
inactive: dose: 100.0 mg/kg/injection, schedule: Q04DX003 (ip), vehicle: other 90 % of control | dose: 200.0 mg/kg/injection, schedule: Q04DX003 (ip), vehicle: other 93 % of control | dose: 400.0 mg/kg/injection, schedule: Q04DX003 (ip), vehicle: other 98 % of control

Cc1ccc(CCl)cc1
inactive: [1] 102 % of control | [2] 100 % of control | [3] 102 % of control | [4] 104 % of control | [6] 102 % of control
